Results on seven compounds are retold here after US4017637A, “Benzylamine analgesics” (priority 1975, dated 1977).

For this experiment, the system named is rats. Put plainly: Analgesic activity in rats, light beam on tip of tail (modified D'Amour and Smith procedure). The format is in vivo, rat. The settings on record: for ED50: Rattus norvegicus. The method, then:
Rats weighing approximately 150 to 200 g. are placed in individual holders, and each holder in turn is situated so that a high intensity light beam shines on the tip of the tail. The intensity of the light beam is adjusted so that normal rats respond by moving their tails out of the light beam in 3 to 8 seconds. The average of two readings taken 20 minutes apart serves as a pre-drug control. Rats are selected for use whose control readings agree within 1 second. Compounds are administered and reaction times are measured every 20 minutes for 2 hours. Analgesic agents cause a significant increase in reaction time.

Counter-ions that a name gives are not always drawn.

As to `CN(C)C(c1cccc(O)c1)[C@H]1CCCC[C@H]1O` (relative stereo) [1-cis-2-(α-dimethylamino-m-hydroxybenzyl)cyclohexanol], the “No. Rats Showing Analgesia/No. Rats Tested” value is, setting by setting: (I.M., 0.41 mg/kg) 4/10; (I.M., 0.62 mg/kg) 7/10; (I.P., 3.12 mg/kg) 8/10; (I.P., 6.25 mg/kg) 6/10; (P.O., 3.12 mg/kg) 5/10; (P.O., 6.25 mg/kg) 7/10.
As to `CCC(=O)O[C@@H]1CCCC[C@@H]1C(c1cccc(OC)c1)N(C)C.Cl` (relative stereo) [Cis-2-[α-Dimethylamino-m-Methoxybenzyl]Cyclohexanol Propionate, Hydrochloride], the “No. Rats Showing Analgesia/No. Rats Tested” value runs as follows: (I.M., 15.0 mg/kg) 3/10; (I.P., 12.5 mg/kg) 3/5.
For `CN(C)C(c1ccccc1)[C@H]1CCCC[C@H]1O` (relative stereo) [Cis-2-[α-Dimethylaminobenzyl]-Cyclohexanol], the “No. Rats Showing Analgesia/No. Rats Tested” value by setting is: (I.M., 6.25 mg/kg) 8/10; (I.P., 6.25 mg/kg) 9/10; (I.P., 12.5 mg/kg) 8/10; (P.O., 5.0 mg/kg) 6/10.
Consider `COc1cccc(C([C@H]2CCCC[C@H]2O)N(C)C)c1` (relative stereo) [cis-2-(α-dimethylamino-m-methoxybenzyl)cyclohexanol], for which, for the setting “I.P., 25.0 mg/kg”, the “No. Rats Showing Analgesia/No. Rats Tested” value is on record as 3/5.
As for `COCOc1cccc(C([C@H]2CCCC[C@H]2O)N(C)C)c1` (relative stereo) [cis-2-[α-dimethylamino-m-(methoxymethoxy)benzyl]cyclohexanol], the “No. Rats Showing Analgesia/No. Rats Tested” value (I.M., 2.5 mg/kg) is 3/10; the “No. Rats Showing Analgesia/No. Rats Tested” value (I.M., 5.0 mg/kg) was 5/10; the “No. Rats Showing Analgesia/No. Rats Tested” value (I.P., 6.25 mg/kg) is 2/5; the “No. Rats Showing Analgesia/No. Rats Tested” value (I.P., 25.0 mg/kg) is 5/5.
On to `CN(C)C(c1cccc(O)c1)[C@H]1CCCC[C@H]1O` (stereo partly drawn) [Cis-2-(α-Dimethylamino-m-Hydroxybenzyl) Cyclohexanol, Hydrochloride], for which the “No. Rats Showing Analgesia/No. Rats Tested” value runs as follows: (I.M., 2.5 mg/kg) 5/10; (I.P., 3.12 mg/kg) 3/5; (I.P., 12.5 mg/kg) 4/5; (P.O., 5.0 mg/kg) 5/10.
With `CN1CC[C@]23c4c5ccc(O)c4O[C@H]2[C@@H](O)C=C[C@H]3[C@H]1C5` [morphine, reference compound], the median effective dose (ED50) (commonly the dose at which the effect has come halfway, by size or by number of responders) is, setting by setting: (im) 2 mg/kg; (ip) 3.5 mg/kg; (po) 10 mg/kg.
